Laboratory results published in PMC11502347 (Frontiers in Microbiology, 2024).

What was measured:
[1] = test system: Mtb CF 184 (mono-resistant to isoniazid); assay type: cell-based, Mycobacterium tuberculosis; settings: Mono INH clinical isolate; REMA, 7 days
[2] = test system: Mtb CF 44 (mono-resistant to isoniazid); assay type: cell-based, Mycobacterium tuberculosis; settings: Mono INH clinical isolate; REMA, 7H9 + 10% OADC, 7 days

| Structure (SMILES) | CIM90 CF 184 [1] | CIM90 CF 44 [2] |
| --- | --- | --- |
| CO[C@H]1/C=C/O[C@@]2(C)Oc3c(C)c(O)c4c(O)c(c(/C=N/N5CCN(C)CC5)c(O)c4c3C2=O)NC(=O)/C(C)=C\C=C\[C@H](C)[C@H](O)[C@@H](C)[C@@H](O)[C@@H](C)[C@H](OC(C)=O)[C@@H]1C [RFP, rifampicin] | 0,05 ± 0,01 μM | 0,05 ± 0,01 μM |
| NNC(=O)c1ccncc1 [INH, isoniazid] | > 182,30 μM | > 182,30 μM |
| NCC[C@H](O)C(=O)N[C@@H]1C[C@H](N)[C@@H](O[C@H]2O[C@H](CN)[C@@H](O)[C@H](O)[C@H]2O)[C@H](O)[C@H]1O[C@H]1O[C@H](CO)[C@@H](O)[C@H](N)[C@H]1O [AMK, amikacin] | 0,24 ± 0,00 μM | 1,48 ± 1,12 μM |
| O=C(Nc1ccc(N2CCSCC2)c(F)c1)c1ccc2no[n+]([O-])c2c1 [Compound 5b] | 0,37 ± 0,15 μM | 0,52 ± 0,09 μM |
| O=C(Nc1ccc(N2CCN(c3ccccn3)CC2)c(F)c1)c1ccc2no[n+]([O-])c2c1 [Compound 5n] | 0,96 ± 1,04 μM | 4,71 ± 3,11 μM |
